Numbers after ± are expanded uncertainties.
Columns and labels:
[1] = xn = mol fraction of the nth substance listed; conditions: 93 kPa, Liquid; for viscosity: Concentric cylinders viscometry; for mass density: Vibrating tube method
[2] = molar heat capacity at constant pressure; xn = mol fraction of the nth substance listed; conditions: Liquid, Flow calorimetry

c1ccc(Oc2ccccc2)cc1 [diphenyl ether] + c1ccc(-c2ccccc2)cc1
[1]
Conditions	mass density, x1 = 0.55 [kg/m3]	mass density, x1 = 0.705 [kg/m3]	mass density, x1 = 0.85 [kg/m3]	mass density, x1 = 1 [kg/m3]	viscosity, x1 = 0.55 [mPa·s]	viscosity, x1 = 0.705 [mPa·s]	viscosity, x1 = 0.85 [mPa·s]	viscosity, x1 = 1 [mPa·s]
288.15 K	–	1066.7 ± 1	–	–	–	5.12 ± 0.1	–	–
293.15 K	–	1062.4 ± 1	–	–	–	4.39 ± 0.09	–	–
298.15 K	–	1058.2 ± 1	1064.2 ± 1	–	–	3.81 ± 0.08	3.8 ± 0.08	–
303.15 K	–	1053.9 ± 1	1060 ± 1	1065.5 ± 1	–	3.34 ± 0.07	3.34 ± 0.07	3.33 ± 0.07
308.15 K	1043.7 ± 1	1049.7 ± 1	1055.7 ± 1	1061.2 ± 1	2.99 ± 0.06	2.96 ± 0.06	2.96 ± 0.06	2.96 ± 0.06
313.15 K	1039.5 ± 1	1045.4 ± 1	1051.3 ± 1	1056.9 ± 1	2.7 ± 0.06	2.64 ± 0.05	2.65 ± 0.05	2.65 ± 0.05
323.15 K	1031.1 ± 1	1037 ± 1	1042.7 ± 1	1048.2 ± 1	2.15 ± 0.04	2.15 ± 0.04	2.16 ± 0.04	2.17 ± 0.04
333.15 K	1022.6 ± 1	1028.5 ± 1	1034.1 ± 1	1039.6 ± 1	1.79 ± 0.04	1.79 ± 0.04	1.81 ± 0.04	1.82 ± 0.04
343.15 K	1014.1 ± 1	1020 ± 1	1025.5 ± 1	1030.9 ± 1	1.52 ± 0.03	1.52 ± 0.03	1.54 ± 0.03	1.54 ± 0.03
353.15 K	1005.6 ± 1	1011.5 ± 1	1016.9 ± 1	1022.3 ± 1	1.31 ± 0.03	1.31 ± 0.03	1.32 ± 0.03	1.33 ± 0.03
363.15 K	997.5 ± 1	1003 ± 1	1008.3 ± 1	1013.7 ± 1	1.14 ± 0.02	1.14 ± 0.02	1.15 ± 0.02	1.16 ± 0.02
373.15 K	989.2 ± 1	994.9 ± 1	999.8 ± 1	1005.2 ± 1	1 ± 0.02	1.01 ± 0.02	1.01 ± 0.02	1.03 ± 0.02

molar heat capacity at constant pressure [J/K/mol], [2]
Conditions	100 kPa	5000 kPa	10000 kPa	15000 kPa	20000 kPa	25000 kPa
293.15 K, x1 = 0.705	260.48 ± 5.3	258.49 ± 5.1	256.34 ± 5.1	255.18 ± 5.1	253.86 ± 5.1	252.7 ± 5.1
313.15 K, x1 = 0.55	273.53 ± 5.5	272.22 ± 5.4	270.76 ± 5.4	269.94 ± 5.4	269.29 ± 5.4	268.96 ± 5.4
313.15 K, x1 = 0.705	270.74 ± 5.5	269.58 ± 5.5	267.76 ± 5.3	267.1 ± 5.3	265.94 ± 5.3	265.11 ± 5.3
313.15 K, x1 = 0.85	272.02 ± 5.5	270.67 ± 5.4	270.17 ± 5.4	269.67 ± 5.4	269.5 ± 5.4	269.33 ± 5.4
313.15 K, x1 = 1	274.37 ± 5.4	273.52 ± 5.4	273.18 ± 5.4	272.5 ± 5.4	272.16 ± 5.4	–
333.15 K, x1 = 0.55	285.75 ± 5.7	284.45 ± 5.7	284.29 ± 5.7	283.96 ± 5.7	283.8 ± 5.7	–
333.15 K, x1 = 0.705	279.34 ± 5.6	278.02 ± 5.6	276.86 ± 5.6	275.54 ± 5.5	274.21 ± 5.5	273.39 ± 5.5
333.15 K, x1 = 0.85	285.1 ± 5.7	284.6 ± 5.7	284.27 ± 5.7	284.1 ± 5.7	283.76 ± 5.7	283.43 ± 5.7
333.15 K, x1 = 1	286.97 ± 5.8	285.95 ± 5.8	284.93 ± 5.8	284.59 ± 5.8	283.39 ± 5.6	282.71 ± 5.6
353.15 K, x1 = 0.55	295.7 ± 5.9	294.88 ± 5.9	294.55 ± 5.9	294.39 ± 5.9	293.25 ± 5.9	293.09 ± 5.9
353.15 K, x1 = 0.705	290.93 ± 5.8	289.27 ± 5.8	287.62 ± 5.8	286.96 ± 5.8	285.47 ± 5.8	283.98 ± 5.6
353.15 K, x1 = 0.85	299.2 ± 6	297.86 ± 6	297.69 ± 6	297.35 ± 6	297.19 ± 6	296.68 ± 5.9
353.15 K, x1 = 1	299.05 ± 6	298.03 ± 6	296.84 ± 6	296.33 ± 6	295.48 ± 6	294.63 ± 6

— the NIST ThermoML archive (doi:10.1016/j.jct.2015.09.028)
